# ChEMBL document CHEMBL4145553, “Design, synthesis, and biological evaluation of novel amide and hydrazide based thioether analogs targeting Histone deacteylase (HDAC) enzymes” (Eur J Med Chem, 2018)
# Experiments:
# IGROV-1 [1] = experiment: Growth inhibition of human IGROV1 cells incubated for 48 hrs by sulforhodamine B assay; format: functional; conditions: IGROV-1, 48 h
# MDA-MB-231 [2] = experiment: Growth inhibition of human MDA-MB-231 cells assessed as cell growth at 10^-5 M incubated for 48 hrs by sulforhodamine B assay relative to control; format: functional; conditions: MDA-MB-231, 48 h, read-out: Activity
# BT-549 = experiment: Growth inhibition of human BT549 cells assessed as cell growth at 10^-4 M incubated for 48 hrs by sulforhodamine B assay relative to control; format: functional; conditions: BT-549, 48 h, read-out: Activity
# RPMI-8226 [3] = experiment: Growth inhibition of human RPMI8226 cells assessed as cell growth at 10^-6 M incubated for 48 hrs by sulforhodamine B assay relative to control; format: functional; conditions: RPMI-8226, 48 h, read-out: Activity
# OVCAR-4 [4] = experiment: Growth inhibition of human OVCAR4 cells assessed as cell growth at 10^-4 M incubated for 48 hrs by sulforhodamine B assay relative to control; format: functional; conditions: OVCAR-4, 48 h, read-out: Activity
# NCI/ADR-RES = experiment: Growth inhibition of human NCI/ADR-RES cells assessed as cell growth at 10^-6 M incubated for 48 hrs by sulforhodamine B assay relative to control; format: functional; conditions: read-out: Activity
# T47D [5] = experiment: Growth inhibition of human T47D cells assessed as cell growth at 10^-8 M incubated for 48 hrs by sulforhodamine B assay relative to control; format: functional; conditions: read-out: Activity
# MDA-MB-435 [6] = experiment: Induction of apoptosis in human MDA-MB-435 cells assessed as early apoptotic cells by propidium iodide/Annexin V staining based flow cytometry (reference value: 0.25%); format: functional
# SW-620 = experiment: Growth inhibition of human SW620 cells assessed as cell growth at 10^-6 M incubated for 48 hrs by sulforhodamine B assay relative to control; format: functional; conditions: SW-620, 48 h, read-out: Activity
# MDA-MB-435 [7] = experiment: Growth inhibition of human MDA-MB-435 cells assessed as cell growth at 10^-6 M incubated for 48 hrs by sulforhodamine B assay relative to control; format: functional; conditions: MDA-MB-435, 48 h, read-out: Activity
# HCT-116 = experiment: Growth inhibition of human HCT116 cells assessed as cell growth at 10^-8 M incubated for 48 hrs by sulforhodamine B assay relative to control; format: functional; conditions: HCT-116, 48 h, read-out: Activity
# M14 = experiment: Growth inhibition of human M14 cells incubated for 48 hrs by sulforhodamine B assay; format: functional; conditions: M14, 48 h
# LOX IMVI = experiment: Growth inhibition of human LOXIMVI cells assessed as cell growth at 10^-8 M incubated for 48 hrs by sulforhodamine B assay relative to control; format: functional; conditions: read-out: Activity
# OVCAR-4 [8] = experiment: Growth inhibition of human OVCAR4 cells incubated for 48 hrs by sulforhodamine B assay; format: functional; conditions: OVCAR-4, 48 h
# Histone deacetylase 8 = Histone deacetylase 8 (Homo sapiens, UniProt Q9BY41); experiment: Inhibition of HDAC8 (unknown origin) by ELISA
# Chain of Histone deacetylase 8 (Q9BY41 whole entry): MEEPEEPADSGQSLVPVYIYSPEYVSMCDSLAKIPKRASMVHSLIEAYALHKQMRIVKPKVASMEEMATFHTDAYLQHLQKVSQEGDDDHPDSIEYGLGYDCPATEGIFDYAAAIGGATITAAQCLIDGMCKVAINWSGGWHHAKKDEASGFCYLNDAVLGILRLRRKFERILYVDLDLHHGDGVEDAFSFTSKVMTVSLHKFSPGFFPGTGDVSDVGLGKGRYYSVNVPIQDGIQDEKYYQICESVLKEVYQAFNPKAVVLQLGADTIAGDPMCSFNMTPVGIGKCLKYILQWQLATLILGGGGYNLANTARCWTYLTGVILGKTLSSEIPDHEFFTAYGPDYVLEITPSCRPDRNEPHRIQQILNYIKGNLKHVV
# IGROV-1 [9] = experiment: Growth inhibition of human IGROV1 cells assessed as cell growth at 10^-6 M incubated for 48 hrs by sulforhodamine B assay relative to control; format: functional; conditions: IGROV-1, 48 h, read-out: Activity
# SF-539 = experiment: Growth inhibition of human SF539 cells assessed as cell growth at 10^-4 M incubated for 48 hrs by sulforhodamine B assay relative to control; format: functional; conditions: SF-539, 48 h, read-out: Activity
# NCI-H23 [10] = experiment: Growth inhibition of human NCI-H23 cells assessed as cell growth at 10^-4 M incubated for 48 hrs by sulforhodamine B assay relative to control; format: functional; conditions: NCI-H23, 48 h, read-out: Activity
# TK-10 [11] = experiment: Growth inhibition of human TK10 cells assessed as cell growth at 10^-6 M incubated for 48 hrs by sulforhodamine B assay relative to control; format: functional; conditions: TK-10, 48 h, read-out: Activity
# RPMI-8226 [12] = experiment: Growth inhibition of human RPMI8226 cells incubated for 48 hrs by sulforhodamine B assay; format: functional; conditions: RPMI-8226, 48 h
# TK-10 [13] = experiment: Growth inhibition of human TK10 cells assessed as cell growth at 10^-8 M incubated for 48 hrs by sulforhodamine B assay relative to control; format: functional; conditions: TK-10, 48 h, read-out: Activity
# MDA-MB-231 [14] = experiment: Growth inhibition of human MDA-MB-231 cells incubated for 48 hrs by sulforhodamine B assay; format: functional; conditions: MDA-MB-231, 48 h
# T47D [15] = experiment: Growth inhibition of human T47D cells assessed as cell growth at 10^-5 M incubated for 48 hrs by sulforhodamine B assay relative to control; format: functional; conditions: read-out: Activity
# HL-60(TB) [16] = experiment: Growth inhibition of human HL-60(TB) cells assessed as cell growth at 10^-6 M incubated for 48 hrs by sulforhodamine B assay relative to control; format: functional; conditions: HL-60, 48 h, read-out: Activity
# HL-60(TB) [17] = experiment: Growth inhibition of human HL-60(TB) cells assessed as cell growth at 10^-8 M incubated for 48 hrs by sulforhodamine B assay relative to control; format: functional; conditions: HL-60, 48 h, read-out: Activity
# SK-MEL-28 = experiment: Growth inhibition of human SK-MEL-28 cells incubated for 48 hrs by sulforhodamine B assay; format: functional; conditions: SK-MEL-28, 48 h
# NCI-H23 [18] = experiment: Growth inhibition of human NCI-H23 cells incubated for 48 hrs by sulforhodamine B assay; format: functional; conditions: NCI-H23, 48 h
# NCI-H460 = experiment: Growth inhibition of human NCI-H460 cells assessed as cell growth at 10^-6 M incubated for 48 hrs by sulforhodamine B assay relative to control; format: functional; conditions: NCI-H460, 48 h, read-out: Activity
# NCI-H522 = experiment: Growth inhibition of human NCI-H522 cells assessed as cell growth at 10^-5 M incubated for 48 hrs by sulforhodamine B assay relative to control; format: functional; conditions: NCI-H522, 48 h, read-out: Activity
# [19] = read-out: LC50 (the source's name)
# [20] = read-out: pLC50 (the source's name) (converted)
smiles,measurement,setting,value
CCS/C(Nc1ccccc1)=C(\C#N)C(=O)Nc1ccc(OC)cc1,GI50,IGROV-1 [1]; read-out: GI50,5.3 µM
same,CC50,IGROV-1 [1]; [19],> 100 µM
same,TGI,IGROV-1 [1]; read-out: TGI,> 100 µM
same,GI50,IGROV-1 [1]; read-out: pGI50 (converted),5.25 µM
same,CC50,IGROV-1 [1]; [20],> 100 µM
same,TGI,IGROV-1 [1]; read-out: pTGI,> 100 µM
same,growth at 10 µM,MDA-MB-231 [2],23%
same,growth at 100 µM,BT-549,12%
same,growth at 1 µM,RPMI-8226 [3],79%
same,growth at 100 µM,OVCAR-4 [4],29%
same,growth at 1 µM,NCI/ADR-RES,73%
same,growth at 0.01 µM,T47D [5],99%
same,Activity,MDA-MB-435 [6],4.61%
same,growth at 1 µM,SW-620,70%
same,growth at 1 µM,MDA-MB-435 [7],19%
same,growth at 0.01 µM,HCT-116,100%
same,GI50,M14; read-out: GI50,2.27 µM
same,CC50,M14; [19],> 100 µM
same,TGI,M14; read-out: TGI,87.4 µM
same,GI50,M14; read-out: pGI50 (converted),2.29 µM
same,CC50,M14; [20],> 100 µM
same,TGI,M14; read-out: pTGI (converted),87.1 µM
same,growth at 0.01 µM,LOX IMVI,100%
same,GI50,OVCAR-4 [8]; read-out: GI50,7.61 µM
same,CC50,OVCAR-4 [8]; [19],> 100 µM
same,TGI,OVCAR-4 [8]; read-out: TGI,> 100 µM
same,GI50,OVCAR-4 [8]; read-out: pGI50 (converted),7.59 µM
same,CC50,OVCAR-4 [8]; [20],> 100 µM
same,TGI,OVCAR-4 [8]; read-out: pTGI,> 100 µM
same,IC50,Histone deacetylase 8,0.295 µM
same,growth at 1 µM,IGROV-1 [9],79%
same,growth at 100 µM,SF-539,-54%
same,growth at 100 µM,NCI-H23 [10],21%
same,growth at 1 µM,TK-10 [11],97%
same,GI50,RPMI-8226 [12]; read-out: GI50,2.52 µM
same,CC50,RPMI-8226 [12]; [19],> 100 µM
same,TGI,RPMI-8226 [12]; read-out: TGI,> 100 µM
same,GI50,RPMI-8226 [12]; read-out: pGI50 (converted),2.51 µM
same,CC50,RPMI-8226 [12]; [20],> 100 µM
same,TGI,RPMI-8226 [12]; read-out: pTGI,> 100 µM
same,growth at 0.01 µM,TK-10 [13],104%
same,GI50,MDA-MB-231 [14]; read-out: GI50,4.14 µM
same,CC50,MDA-MB-231 [14]; [19],> 100 µM
same,TGI,MDA-MB-231 [14]; read-out: TGI,36.5 µM
same,GI50,MDA-MB-231 [14]; read-out: pGI50 (converted),4.17 µM
same,CC50,MDA-MB-231 [14]; [20],> 100 µM
same,TGI,MDA-MB-231 [14]; read-out: pTGI (converted),36.3 µM
same,growth at 10 µM,T47D [15],25%
same,growth at 1 µM,HL-60(TB) [16],86%
same,growth at 0.01 µM,HL-60(TB) [17],96%
same,GI50,SK-MEL-28; read-out: GI50,15.3 µM
same,CC50,SK-MEL-28; [19],> 100 µM
same,TGI,SK-MEL-28; read-out: TGI,> 100 µM
same,GI50,SK-MEL-28; read-out: pGI50 (converted),15.5 µM
same,CC50,SK-MEL-28; [20],> 100 µM
same,TGI,SK-MEL-28; read-out: pTGI,> 100 µM
same,GI50,NCI-H23 [18]; read-out: GI50,4.9 µM
same,LC50,NCI-H23 [18]; read-out: LC50,> 100 µM
same,TGI,NCI-H23 [18]; read-out: TGI,> 100 µM
same,GI50,NCI-H23 [18]; read-out: pGI50 (converted),4.9 µM
same,LC50,NCI-H23 [18]; read-out: pLC50 (converted),> 100 µM
same,TGI,NCI-H23 [18]; read-out: pTGI,> 100 µM
same,growth at 1 µM,NCI-H460,90%
same,growth at 10 µM,NCI-H522,-1%
